Read-outs that look alike come from different tables or passages of the source.
What was measured:
Assay type in all cases: cell-based
[1] = test system: albumin (secreted, cellular toxicity marker); experiment: Albumin (in vitro tox), HepaRG; conditions: human
Protocol: (§1) Following 4 day of maturation with 1 μM MB-1, HLC were incubated with HBV (purified from CHB individuals) at multiplicity of infection (MOI) 10-40 without PEG for 24 hr; virus inoculum was removed the following day. HBV infection in PHH was performed at MOI 40+4% PEG. Compound treatment in HLC and PHH was started at day 3 post infection. Compound (in powder) was dissolved in DMSO; the final concentration of DMSO added to cells is 1%. Fresh compound was replenished every 2 day until cells were harvested at day 10 (PHH), or day 14 (HLC). Compound effect on HBV and cellular toxicity was measured by multiplex assay (HBsAg, HBeAg, albumin), branched DNA (pgRNA), or digital PCR (cccDNA) and depicted as % of inhibition compared to DMSO control. Graphs were prepared using Spotfire software.
A custom, Luminex-based multiplex assay that simultaneously measured HBeAg, albumin, and HBsAg was developed by Radix BioSolutions (Georgetown, Tex.). This is a sandwich immunoassay; each capture antibody was coupled with xMAP™ Luminex magnetic beads. […] Samples were read on FlexMAP 3D (Luminex) and analyzed by Genedata software.
Most of HBV in vitro studies, including evaluation of compound antiviral activity, are performed in hepatoma cell lines (HepaRG or HepG2-NTCP) infected with cell culture-derived HBV (e.g. HepG2.2.15-derived virus, GT D). […] To address the first question, PHH (in 384-well plate) were infected with four clinical HBV isolates (GT A-D, at MOI 40). […] Most HBV in vitro studies are performed in hepatoma cell lines (e.g. HepaRG or HepG2 cell lines) utilizing HepG2-derived HBV as the virus inoculum.

[2] = test system: HBsAg; experiment: HBsAg, HBV-infected HepaRG; conditions: Hepatitis B virus
[3] = test system: HBeAg; experiment: HBeAg, multiplex assay, HBV-infected PHH; conditions: Hepatitis B virus
Protocol: Fresh primary human hepatocytes (PXB-PHH) harvested from humanized mice (uPA/SCID mice)—herein called PHH—were obtained from PhoenixBio Co., Ltd (Japan). Cells were seeded on a collagen I-coated plate at the following cell density: 35,000 cells/well (384-well), 70,000 cells/well (96-well), or, 400,000 cells/well (24-well) in modified hepatocyte clonal growth medium (dHCGM). dHCGM is a DMEM medium containing 100 U/ml Penicillin, 100 μg/ml Streptomycin, 20 mM Hopes, 44 mM NaHCO3, 15 μg/ml L-proline, 0.25 μg/ml insulin, 50 nM Dexamethazone, 5 ng/ml EGF, 0.1 mM Asc-2P, 2% DMSO and 10% FBS (Ishida et al., 2015). Cells were cultured at 37° C. incubator in a humidified atmosphere with 5% CO2. Culture medium was replaced 24 h post-plating and every 2 days until harvest.
as §1, with “HBV infection in PHH was performed at MOI 40+4% PEG.” left out
A custom, Luminex-based multiplex assay that simultaneously measured HBeAg, albumin, and HBsAg was developed by Radix BioSolutions (Georgetown, Tex.). This is a sandwich immunoassay; each capture antibody was coupled with xMAP™ Luminex magnetic beads. The dynamic ranges of analyte detection are as follows: HBeAg (1-316 ng/ml), albumin (3.1-10,000 ng/ml), and HBsAg (0.1-100 ng/ml) with coefficient variant (CV) […]. Samples were read on FlexMAP 3D (Luminex) and analyzed by Genedata software.

O=C(NC(CO)CO)c1c[nH]c2ncc(C3CC3)nc12 [compound 7]
IC50 ([1]; HepG2.2.15-derived HBV GT D, MOI 40, read-out: In vitro tox albumin IC50 (μM) Median): 24.9 µM
IC50 ([1]; HepG2.2.15-derived HBV GT D, MOI 125, read-out: In vitro tox albumin IC50 (μM) Median): 26.6 µM
IC50 ([1]; HepaRG cells infected with HBV, patient-derived HBV GT D, MOI 40, read-out: In vitro tox albumin IC50 (μM) Median): 23.4 µM
IC50 ([1]; HepaRG cells infected with HBV, patient-derived HBV GT D, MOI 125, read-out: In vitro tox albumin IC50 (μM) Median): 25.7 µM
IC50 ([2]; read-out: HBsAg IC50 (μM) Median, HepaRG, HepG2.2.15-derived HBV GT D, MOI 40): 9.01 µM
IC50 ([2]; read-out: HBsAg IC50 (μM) Median, HepaRG, HepG2.2.15-derived HBV GT D, MOI 125): 10.3 µM
IC50 ([2]; read-out: HBsAg IC50 (μM) Median, HepaRG, patient-derived HBV GT D, MOI 40): 0.67 µM
IC50 ([2]; read-out: HBsAg IC50 (μM) Median, HepaRG, patient-derived HBV GT D, MOI 125): 0.88 µM
IC50 ([3]; 240 h, read-out: HBeAg IC50 (μM) Median, PHH, patient-derived HBV GT A, MOI 40, day 10 pi): 0.4 µM
IC50 ([3]; 240 h, read-out: HBeAg IC50 (μM) Median, PHH, patient-derived HBV GT B, MOI 40, day 10 pi): 0.31 µM
IC50 ([3]; 240 h, read-out: HBeAg IC50 (μM) Median, PHH, patient-derived HBV GT C, MOI 40, day 10 pi): 0.35 µM
IC50 ([3]; 240 h, read-out: HBeAg IC50 (μM) Median, PHH, patient-derived HBV GT D, MOI 40, day 10 pi (Table 5)): 0.31 µM
IC50 ([3]; read-out: HBeAg IC50 (μM) Median, PHH, HepG2.2.15-derived HBV GT D, MOI 40): 15.3 µM
IC50 ([3]; read-out: HBeAg IC50 (μM) Median, PHH, HepG2.2.15-derived HBV GT D, MOI 125): 15.9 µM
IC50 ([3]; read-out: HBeAg IC50 (μM) Median, PHH, patient-derived HBV (GT D)): 0.39 µM
IC50 ([3]; read-out: HBeAg IC50 (μM) Median, PHH, patient-derived HBV GT D, MOI 40 (Table 6)): 0.32 µM
IC50 ([3]; read-out: HBeAg IC50 (μM) Median, PHH, patient-derived HBV GT D, MOI 125): 0.57 µM
IC50 ([3]; read-out: HBeAg IC50s, PHH, patient-derived HBV GT A-D, range stated in text for HBsAg & HBeAg): 0.24 to 0.45 µM
